Reference: patent publication EP3062762B1, “STABLE SOLUTIONS CONTAINING A PHYSIOLOGICAL COOLING REAGENT AND USE THEREOF” (priority 2013, dated 2015)
Where two headings read alike, the source gives them in different places.

Legend:
[1] = Miscibility with water and lipophilic cosmetic solvents (Neutralöl, Paraffinöl); format: physicochemical; conditions: for Löslichkeit + Neutralöl auf: 2,5 g: 0,1 g PKR made up with Neutralöl to 2,5 g; for Löslichkeit + Neutralöl auf: 5 g: 0,1 g PKR made up with Neutralöl to 5 g; for Löslichkeit + Neutralöl auf: 10 g: 0,1 g PKR made up with Neutralöl to 10 g; for Löslichkeit + Paraffinöl auf: 5 g: 0,1 g PKR made up with Paraffinöl to 5 g; for Löslichkeit + Paraffinöl auf: 10 g: 0,1 g PKR made up with Paraffinöl to 10 g; for Löslichkeit + Wasser auf: 10 g: 0,1 g PKR made up with water to 10 g; for Löslichkeit + Wasser auf: 20 g: 0,1 g PKR made up with water to 20 g; for Löslichkeit + Neutralöl auf: 10 g: key: +: klare Lösung; -: Zweiphasengemisch; for Löslichkeit + Neutralöl auf: 2,5 g: key: +: klare Lösung; -: Zweiphasengemisch; for Löslichkeit + Neutralöl auf: 5 g: key: +: klare Lösung; -: Zweiphasengemisch
Description: Mischungen aus 40 Gew.-% Kühlreagenz (a) und jeweils 60 bzw. 50 Gew.-% Alkohol (b) wurden gemäß Beispiel 1 erzeugt bzw. mit 10 Gew.-% Wasser versetzt.
Anschließend wurde alternativ mit Wasser, Neutralöl oder Paraffinöl versetzt.

[2] = cited from earlier work
[3] = octanol/water; cited from earlier work

Row | SMILES | Löslichkeit + Neutralöl auf: 2,5 g ([1]; Lagertemperatur 8 °C) | Löslichkeit + Neutralöl auf: 2,5 g ([1]; Lagertemperatur 20 °C) | Löslichkeit + Neutralöl auf: 5 g ([1]; Lagertemperatur 8 °C) | Löslichkeit + Neutralöl auf: 5 g ([1]; Lagertemperatur 20 °C) | Löslichkeit + Neutralöl auf: 10 g ([1]; Lagertemperatur 8 °C) | Löslichkeit + Neutralöl auf: 10 g ([1]; Lagertemperatur 20 °C) | Löslichkeit + Paraffinöl auf: 5 g ([1]; Lagertemperatur 8 °C) | Löslichkeit + Paraffinöl auf: 5 g ([1]; Lagertemperatur 20 °C) | Löslichkeit + Paraffinöl auf: 10 g ([1]; Lagertemperatur 8 °C) | Löslichkeit + Paraffinöl auf: 10 g ([1]; Lagertemperatur 20 °C) | Löslichkeit + Wasser auf: 10 g ([1]; Lagertemperatur 8 °C) | Löslichkeit + Wasser auf: 10 g ([1]; Lagertemperatur 20 °C) | Löslichkeit + Wasser auf: 20 g ([1]; Lagertemperatur 8 °C) | Löslichkeit + Wasser auf: 20 g ([1]; Lagertemperatur 20 °C) | Löslichkeit in Wasser ([2]; bei 20 °C) | log Kow [3] | Löslichkeit in Wasser ([2]; water)
1 | CNC(=O)C(C)(C(C)C)C(C)C [WS-23, 2-Isopropyl-N,2,3-trimethylbutanamid] | + | + | + | + | + | + | - | - | - | - | - | - | - | + | ca. 0,5 g/L |  | 
2 | CC(O)CO (stereo not shown) [1,2-Propandiol] |  |  |  |  |  |  |  |  |  |  |  |  |  |  |  | -0,90 | 
3 | CC(C)[C@@H]1CC[C@@H](C)C[C@H]1O [L-Menthol] | + | + | + | + | + | + | + | + | + | + | - | - | - | - |  |  | 0,355 g/L
